According to patent US11298422B2, “Treating tumors with TTFields and an aurora kinase inhibitor” (Novocure Limited, priority 2018, dated 2022):

Legend:
Type in all cases: cell-based, human
U-251 = assay: Overall effect based on the clonogenic assay, U-251; conditions: for overall effect, Observed TTFields + AZD1152 / overall effect, AZD1152: 72 h; for overall effect, Observed TTFields + AZD1152: clonogenic assay; for overall effect, Expected: expected value for the combination; for overall effect, AZD1152: based on the clonogenic assay
Procedure: (§1) The effects of the combined treatment of TTFields and the Aurora B kinase inhibitor AZD1152 was tested in 3 different glioma cell lines: U87-MG, U87-MG^shp53 and U-251. TTFields ([…], 200 kHz) were applied for 72 hours using the Inovitro system. AZD1152 was added to the media in concentrations of up to 100 nmol/L. Cell counts, cell cycle, and clonogenic potential were determined at the end of treatment. Formation of multinuclear cells was determined using microscopic images of cells stained with crystal violet.
(§2) The effects of the combined treatment of TTFields and AZD1152 was tested using the following human glioma cell lines: U87-MG (ATCC), U-251 (ECACC) and U87-mG^shp53 (provided by Dr. Achim Temme). All cells were grown in a humidified incubator supplied with 5% CO2. Cells were maintained in EMEM, supplemented with 10% FBS, 2 mmol/L glutamine, Pen-Strep solution (100 units/ml Penicillin and 0.1 mg/ml Streptomycin), 1 mmol/L sodium pyruvate and 1% NEAA. U87-MG^shp53 cells were maintained under selection with […] geneticin. AZD1152 was obtained from Sigma, Israel.
(§3) TTFields (1.6 V/cm RMS, 200 kHz) were applied for 72 hours using the Inovitro system. At the end of treatment, inhibition of tumor cell growth was analyzed quantitatively based on cell count. Clonogenic survival of U87-MG, U87-MG^shp53 and U-251 was tested by plating triplicates of 300 cells/dish in 6 wells dishes. After 2-3 weeks, cells were stained with crystal violet and the number of clones was quantified. Overall effect was calculated by multiplying the percentage of surviving cells at the end of treatment with the percentage of colonies formed vs. control.
The overall effect for U-251 cells was determined based on the clonogenic assay. Response to TTFields application alone led to about 50% reduction in the clonogenic potential of U-251 cells (FIG. 1E).

U87-MG^shp53 = assay: Flow cytometry analysis of DNA contents (ploidy), U87-MG^shp53; conditions: 72 h
Procedure: (§4) For cell cycle analysis, cells were removed with Trypsin immediately after 72 h treatment, washed twice with ice-cold PBS with 1% FBS and fixed with 70% ice-cold ethanol for 30 min. After fixation, cells were washed twice with ice-cold PBS with 1% FBS, pelleted and incubated in PBS containing 10 μg/ml RNase and 7.5 μg/ml7-AAD (Sigma-Aldrich) at 37° C. for 30 min. Cell cycle distribution was then quantified using the EC800 flow cytometer (Sony Biotechnology, Japan).
(§5) FIGS. 3A-D and 4A-E show U87-MG and U87-MG^shp53 FACS analysis of DNA contents following treatment with TTFields and AZD1152. More specifically, FIGS. 3A-D depict increased polyploidy in U87-MG cells following the combined treatment of TTFields (200 kHz, 1.6 V/cm RMS) at various AZD1152 concentrations; and FIGS. 4A-E depict increased polyploidy in U87-MG^shp53 cells following the combined treatment of TTFields (200 kHz, 1.6 V/cm RMS) at various AZD1152 concentrations.
(§6) Tables 1 and 2 depict, for U87-MG and U87-MG^shp53 respectively, numeric data corresponding to FIGS. 3 and 4. The columns in tables 1 and 2 represent the DNA copy number (e.g., 2n is the normal number of chromosomes (23 pairs=46), 4n is twice the number of chromosomes, etc.).

U87-MG [1] = assay: Flow cytometry analysis of DNA contents (ploidy), U87-MG; conditions: 72 h
Procedure: as §4, §5, §6

U87-MG [2] = assay: Cytotoxicity assay (cell count at end of treatment), U87-MG; conditions: for cytotoxic effect, Observed TTFields + AZD1152 / cytotoxic effect, AZD1152: 72 h; for cytotoxic effect, Observed TTFields + AZD1152: percentage of control; for cytotoxic effect, Expected: expected value for the combination; for cytotoxic effect, AZD1152: number of cells as percentage of control
Procedure: as §1, §2, §3

U87-MG [3] = assay: Overall effect (surviving cells x colonies formed vs. control), U87-MG; conditions: for overall effect, Observed TTFields + AZD1152 / overall effect, AZD1152: 72 h; for overall effect, Expected: expected value for the combination; for overall effect, AZD1152: surviving cells x colonies vs. control
Procedure: as §1, §2, §3

[4] = U87-MGShp53, AZD1152 12.5 nM + TTFIELDS 200 kHz 1.6 V/cm RMS
[5] = U87-MGShp53, AZD1152 12.5 nM, CONTROL (no TTFields)
[6] = U87-MGShp53, AZD1152 25 nM + TTFIELDS 200 kHz 1.6 V/cm RMS
[7] = U87-MGShp53, AZD1152 25 nM, CONTROL (no TTFields)
[8] = U87-MGShp53, AZD1152 50 nM + TTFIELDS 200 kHz 1.6 V/cm RMS
[9] = U87-MGShp53, AZD1152 50 nM, CONTROL (no TTFields)
[10] = AZD1152 25 nM + TTFIELDS 200 kHz 1.6 V/cm RMS
[11] = AZD1152 25 nM, CONTROL (no TTFields)
[12] = AZD1152 50 nM + TTFIELDS 200 kHz 1.6 V/cm RMS
[13] = AZD1152 50 nM, CONTROL (no TTFields)
[14] = AZD1152 100 nM + TTFIELDS 200 kHz 1.6 V/cm RMS
[15] = AZD1152 100 nM, CONTROL (no TTFields)

In the case of `CCN(CCCOc1ccc2c(Nc3cc(CC(=O)Nc4cccc(F)c4)n[nH]3)ncnc2c1)CCOP(=O)(O)O` [AZD1152, Barasertib], the “overall effect, Observed TTFields + AZD1152” value (U-251; U-251, AZD1152 6.25 nM + TTFields 200 kHz 1.6 V/cm RMS) is reported as 8.0%, the “overall effect, Expected” value (U-251; U-251, AZD1152 6.25 nM + TTFields) is reported as 40.7% and the “overall effect, AZD1152” value (U-251; U-251, AZD1152 6.25 nM alone) is reported as 74%. The “overall effect, Observed TTFields + AZD1152” value (U-251; U-251, AZD1152 12.5 nM + TTFields 200 kHz 1.6 V/cm RMS) was 0.7%, the “overall effect, Expected” value (U-251; U-251, AZD1152 12.5 nM + TTFields) was 8.3% and the “overall effect, AZD1152” value (U-251; U-251, AZD1152 12.5 nM alone) was 15%. The “overall effect, Observed TTFields + AZD1152” value (U-251; U-251, AZD1152 25 nM + TTFields 200 kHz 1.6 V/cm RMS) was 0.2%, the “overall effect, Expected” value (U-251; U-251, AZD1152 25 nM + TTFields) was 1.1% and the “overall effect, AZD1152” value (U-251; U-251, AZD1152 25 nM alone) was 2%. The “overall effect, Observed TTFields + AZD1152” value (U-251; U-251, AZD1152 50 nM + TTFields 200 kHz 1.6 V/cm RMS) was 0.2%, the “overall effect, Expected” value (U-251; U-251, AZD1152 50 nM + TTFields) was 1.1% and the “overall effect, AZD1152” value (U-251; U-251, AZD1152 50 nM alone) was 2%. The “overall effect, Observed TTFields + AZD1152” value (U-251; U-251, AZD1152 100 nM + TTFields 200 kHz 1.6 V/cm RMS) was 0.2%, the “overall effect, Expected” value (U-251; U-251, AZD1152 100 nM + TTFields) was 0.8% and the “overall effect, AZD1152” value (U-251; U-251, AZD1152 100 nM alone) was 1.5%. For the same compound, the “DNA copy number 2n” value (U87-MG^shp53; [4]) was 44%, the “DNA copy number 4n” value (U87-MG^shp53; [4]) was 34% and the “DNA copy number 8n” value (U87-MG^shp53; [4]) was 19%. The “DNA copy number 2n” value (U87-MG^shp53; [5]) was 46%, the “DNA copy number 4n” value (U87-MG^shp53; [5]) was 29% and the “DNA copy number 8n” value (U87-MG^shp53; [5]) was 6%. For the same compound, the “DNA copy number 16n” value (U87-MG^shp53; [5]) was 1%, the “DNA copy number 32n” value (U87-MG^shp53; [5]) was 0% and the “DNA copy number 2n” value (U87-MG^shp53; [6]) was 10%. The “DNA copy number 4n” value (U87-MG^shp53; [6]) was 36%, the “DNA copy number 8n” value (U87-MG^shp53; [6]) was 29% and the “DNA copy number 2n” value (U87-MG^shp53; [7]) was 48%. The “DNA copy number 4n” value (U87-MG^shp53; [7]) was 25%, the “DNA copy number 8n” value (U87-MG^shp53; [7]) was 6% and the “DNA copy number 16n” value (U87-MG^shp53; [7]) was 1%. The “DNA copy number 32n” value (U87-MG^shp53; [7]) was 0%, the “DNA copy number 2n” value (U87-MG^shp53; [8]) was 2% and the “DNA copy number 4n” value (U87-MG^shp53; [8]) was 21%. The “DNA copy number 8n” value (U87-MG^shp53; [8]) was 38%, the “DNA copy number 2n” value (U87-MG^shp53; [9]) was 40% and the “DNA copy number 4n” value (U87-MG^shp53; [9]) was 33%. For the same compound, the “DNA copy number 8n” value (U87-MG^shp53; [9]) was 11%, the “DNA copy number 16n” value (U87-MG^shp53; [9]) was 3% and the “DNA copy number 32n” value (U87-MG^shp53; [9]) was 0%. The “DNA copy number 2n” value (U87-MG [1]; [10]) was 39%, the “DNA copy number 4n” value (U87-MG [1]; [10]) was 31% and the “DNA copy number 8n” value (U87-MG [1]; [10]) was 9%. The “DNA copy number 16n” value (U87-MG [1]; [10]) was 2%, the “DNA copy number 2n” value (U87-MG [1]; [11]) was 55% and the “DNA copy number 4n” value (U87-MG [1]; [11]) was 25%. The “DNA copy number 8n” value (U87-MG [1]; [11]) was 4%, the “DNA copy number 16n” value (U87-MG [1]; [11]) was 1% and the “DNA copy number 2n” value (U87-MG [1]; [12]) was 28%. The “DNA copy number 4n” value (U87-MG [1]; [12]) was 36%, the “DNA copy number 8n” value (U87-MG [1]; [12]) was 16% and the “DNA copy number 16n” value (U87-MG [1]; [12]) was 2%. The “DNA copy number 2n” value (U87-MG [1]; [13]) was 45%, the “DNA copy number 4n” value (U87-MG [1]; [13]) was 26% and the “DNA copy number 8n” value (U87-MG [1]; [13]) was 8%. The “DNA copy number 16n” value (U87-MG [1]; [13]) was 2%, the “DNA copy number 2n” value (U87-MG [1]; [14]) was 11% and the “DNA copy number 4n” value (U87-MG [1]; [14]) was 40%. For the same compound, the “DNA copy number 8n” value (U87-MG [1]; [14]) was 25%, the “DNA copy number 16n” value (U87-MG [1]; [14]) was 4% and the “DNA copy number 2n” value (U87-MG [1]; [15]) was 27%. The “DNA copy number 4n” value (U87-MG [1]; [15]) was 33%, the “DNA copy number 8n” value (U87-MG [1]; [15]) was 22% and the “DNA copy number 16n” value (U87-MG [1]; [15]) was 3%. The “cytotoxic effect, Observed TTFields + AZD1152” value (U87-MG [2]; AZD1152 25 nM + TTFields 200 kHz 1.6 V/cm RMS) was 13.5%, the “cytotoxic effect, Expected” value (U87-MG [2]; AZD1152 25 nM + TTFields) was 23.5% and the “cytotoxic effect, AZD1152” value (U87-MG [2]; AZD1152 25 nM alone) was 46%. The “cytotoxic effect, Observed TTFields + AZD1152” value (U87-MG [2]; AZD1152 50 nM + TTFields 200 kHz 1.6 V/cm RMS) was 8.5%, the “cytotoxic effect, Expected” value (U87-MG [2]; AZD1152 50 nM + TTFields) was 13.0% and the “cytotoxic effect, AZD1152” value (U87-MG [2]; AZD1152 50 nM alone) was 25.5%. For the same compound, the “cytotoxic effect, Observed TTFields + AZD1152” value (U87-MG [2]; AZD1152 100 nM + TTFields 200 kHz 1.6 V/cm RMS) was 4.0%, the “cytotoxic effect, Expected” value (U87-MG [2]; AZD1152 100 nM + TTFields) was 4.8% and the “cytotoxic effect, AZD1152” value (U87-MG [2]; AZD1152 100 nM alone) was 9.5%. For the same compound, the “cytotoxic effect of combined treatment of TTFields and AZD1152” value (U87-MG [2]; TTFields 200 kHz 1.6 V/cm RMS 72 hours, 2-way ANOVA, p<0.001) was “significant enhancement of the cytotoxic effect”, the “overall effect, Observed TTFields + AZD1152” value (U87-MG [3]; [10]) was 10.0% and the “overall effect, Expected” value (U87-MG [3]; AZD1152 25 nM + TTFields) was 15.0%. The “overall effect, AZD1152” value (U87-MG [3]; AZD1152 25 nM alone) was 31%, the “overall effect, Observed TTFields + AZD1152” value (U87-MG [3]; [12]) was 6.0% and the “overall effect, Expected” value (U87-MG [3]; AZD1152 50 nM + TTFields) was 8.0%. The “overall effect, AZD1152” value (U87-MG [3]; AZD1152 50 nM alone) was 16.5%, the “overall effect, Observed TTFields + AZD1152” value (U87-MG [3]; [14]) was 4.0% and the “overall effect, Expected” value (U87-MG [3]; AZD1152 100 nM + TTFields) was 2.2%. For the same compound, the “overall effect, AZD1152” value (U87-MG [3]; AZD1152 100 nM alone) was 4.5%.
